{"source": "patent US20130225694A1", "about": "“COMPOSITIONS AND METHODS OF INHIBITING RETINAL DEGENERATION” (Oklahoma Medical Research Foundation, priority 2012, published 2013)", "key": {"Rat Retina [1]": {"test_system": "Rat Retina", "settings": "50 mg/kg 0.5 hour before light stress 2,700 lux for 24 hours; earlier publication (1); cited from earlier work"}, "Rat Retina [2]": {"test_system": "Rat Retina", "assay": "Light-induced retinal degeneration in rats, systemic (IP) nitrone; ERG and ONL histology", "settings": "rat, in vivo", "procedure": "Consistent with previous publications (1-2,5), a dose of 50 mg/kg PBN and S-PBN dissolved in saline was chosen for intraperitoneal injection in the rats in the treatment group. An equal volume of saline was injected into control rats.\nA light-stress paradigm of 2,700 lux for 6 hours was used to test the effect of PBN at different time points before (0.5 hour, 3 hours, 6 hours, 12 hours, 16 hours, and 24 hours) or after (0.5 hour and 3 hours) light exposure. The effect of S-PBN was tested using the same dose and protocol of PBN at 0.5 hours before light exposure.\nElectroretinography—After light exposure, rats were returned to their dim cyclic light (5-10 lux) environment for 7 days before ERG recordings were performed. Flash ERGs were recorded with the Diagnosys Espion E2 ERG System (Diagnosys, LLC, Lowell, Mass.). Rats were maintained in total darkness overnight and prepared for ERG recording under dim red light. They were anesthetized with ketamine (120 mg/kg body weight) and xylazine (6 mg/kg body weight) intramuscularly (IM). One drop of 10% (v/v) phenylephrine was applied to the cornea to dilate the pupil, and one drop of 0.5% (v/v) proparacaine HCl was applied for local anesthesia. Rats were kept on a heating pad at 37° C. during recordings. A gold electrode was placed on the cornea, a reference electrode was positioned in the mouth, and a ground electrode was placed on the foot; rats were then placed inside a Ganzfeld illuminating sphere. Responses were differentially amplified, averaged, and stored. For the assessment of rod photoreceptor function (scotopic ERG), five strobe flash stimuli were presented at flash intensities at −2.3, −1.3, 0.7, and 2.7 log cd·s/m^2. The amplitude of the a-wave was measured from the pre-stimulus baseline to the a-wave trough. The amplitude of the b-wave was measured from the trough of the a-wave to the peak of the b-wave. For the evaluation of cone function (photopic ERG), a strobe flash stimulus (3.3 log cd·s/m^2) was presented to dilated, light-adapted (5 minutes at 1.7 log cd·s/m^2) rats. The amplitude of the cone b-wave was measured from the trough of the a-wave to the peak of the b-wave.\nHistology—After ERG recordings, rats were killed by carbon dioxide asphyxiation for light microscopic evaluation of retinal structure. Immediately after death, eyes were excised, placed in fixative (4% (w/v) paraformaldehyde, 2% (v/v) trichloroacetic acid, 20% (v/v) isopropyl alcohol, 2% (v/v) zinc chloride, and 72% (v/v) distilled water), and embedded in paraffin. Sections of 5 μm were cut along the vertical meridian through the optic nerve and stained with hematoxylin and eosin (H&E).\nThe PBN derivatives were injected intraperitoneally (IP) into albino SD rats at 50 mg/kg body weight at 0.5 hours before the start of light-damage exposure at 2,700 lux for 6 hours. After the exposure, the rats were moved to their dim cyclic room to recover for a week. Retinal damage/protection was assessed by functional analysis by ERG and structural analysis of histological sections. Dark adapted (12 hour) and Light adapted (for 2 hour) retinas were utilized as controls."}, "RPE65 isomerohydrolase": {"biological_target": "T1, RPE65 isomerohydrolase (Bos taurus, UniProt Q28175)", "T1 construct": "Bovine RPE microsomes were used as a source of the RPE65 protein; from tissue; host or cells: bovine RPE microsomes", "T1 sequence (Q28175 whole entry)": "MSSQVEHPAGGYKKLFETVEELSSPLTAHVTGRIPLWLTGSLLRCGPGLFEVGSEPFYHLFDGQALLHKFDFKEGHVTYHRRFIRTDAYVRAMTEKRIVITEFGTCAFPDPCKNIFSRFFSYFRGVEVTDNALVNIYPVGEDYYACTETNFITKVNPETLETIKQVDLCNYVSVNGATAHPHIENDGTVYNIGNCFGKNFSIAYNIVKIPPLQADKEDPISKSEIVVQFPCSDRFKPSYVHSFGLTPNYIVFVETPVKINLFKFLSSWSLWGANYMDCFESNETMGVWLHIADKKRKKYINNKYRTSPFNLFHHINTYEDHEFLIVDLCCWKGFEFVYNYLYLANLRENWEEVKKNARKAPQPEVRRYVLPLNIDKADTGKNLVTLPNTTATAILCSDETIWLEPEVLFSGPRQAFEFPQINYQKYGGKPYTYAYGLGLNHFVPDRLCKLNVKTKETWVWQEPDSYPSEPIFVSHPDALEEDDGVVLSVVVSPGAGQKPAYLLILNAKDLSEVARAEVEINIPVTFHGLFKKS", "assay": "In vitro RPE65 isomerohydrolase assay with bovine RPE microsomes (Example 3)", "type": "biochemical", "source_text": "In this Example, the effect of several PBN analogs on RPE65 isomerohydrolase activity was investigated in an in vitro assay. The chemical structures of the PBN analogs utilized are described herein above. Bovine RPE microsomes were used as a source of the RPE65 protein and all-trans-[^3H] retinol was a substrate for the isomerohydrolase assay. The produced 11-cis-[^3H] retinol was quantified by normal phase HPLC with flow scintillation analyzer. The inhibition of isomerohydrolase activity was dependent on the PBN analog's concentration.\nFIG. 9 also illustrates the calculation of IC50 values for the two difluoro-PBN analogs. IC50 values are the concentration of the inhibitor that inhibits 50% of the enzymatic activity. Therefore, the smaller the IC50 value, the better the drug."}, "mouse retina": {"test_system": "mouse retina", "assay": "Light-damage protection by topical PBN eye drops in mice (ERG)", "type": "in vivo", "settings": "10% PBN eye drop in V1 or V2; 3,000 lux 6 h; ERG five days after", "procedure": "After topical application of PBN, light-damage was done at 3,000 lux for 6 h. ERG response were recorded five days after light-damage. Two vehicles were used to solubilize and make 10% PBN eye drop formulation for topical application on mouse eye, vehicle 1 (V-1) and vehicle 2 (V-2).\nAfter topical application of PBN, light-damage was done at 3,000 lux for 6 h. ERG responses were recorded five days after light-damage. Two vehicles were used to solubilize and make the 10% PBN eye drop formulation for topical application on mouse eyes, vehicle 1 (V-1) and vehicle 2 (V-2). […] Vehicle 1 contains 10 mM potassium borate/bicarbonate buffer (pH 7.2), glycerine, 1.0%, carboxymethylcellulose 0.3%, benzyl alcohol 0.3%, and 30% 1-methyl-2-pyrrolidinone (a solubilizing enhancer, a.k.a., N-Methyl-2-Pyrrolidone—“NMP”). Vehicle 2 contains 137 mM sodium chloride, 2.7 mM potassium chloride in 10 mM phosphate buffer (pH 7.4), and 30% 1-methyl-2-pyrrolidinone."}}, "note": "Read-outs that look alike come from different tables or passages of the source."}
{"smiles": "CC(C)(C)/[N+]([O-])=C/c1ccccc1", "note": "[Compound 1, α-phenyl-N-tert-butyl nitrone]", "values": [{"measurement": "protection of retinal structure and function", "setting": "Rat Retina [1]", "value": "80-90%"}, {"measurement": "% Protection (ONL, Inferior retina)", "setting": "Rat Retina [2]", "value": 85.0, "unit": "%"}, {"measurement": "% Protection (ONL, Superior retina)", "setting": "Rat Retina [2]", "value": 87.1, "unit": "%"}, {"measurement": "retention of photoreceptor cells", "setting": "Rat Retina [2]", "value": "approximately 90%"}, {"measurement": "IC50", "setting": "RPE65 isomerohydrolase; apparent IC50, bovine RPE microsomes, all-trans-[3H] retinol substrate (Table 1), read-out: IC50 Values for the Inhibition of RPE65 Isomerohydrolase Reaction", "value": 100, "unit": "µM"}, {"measurement": "IC50", "setting": "RPE65 isomerohydrolase; in vitro RPE65 isomerohydrolase IC50 values repeated in Table 7, read-out: IC50", "value": 100, "unit": "µM"}, {"measurement": "rod function (scotopic A-wave) after light-damage", "setting": "mouse retina", "value": "significant restoration of rod function"}]}
